The values below are quoted from earlier work in US7253172B2, “Dipeptidyl peptidase inhibitors for the treatment of diabetes” (Merck & Co., Inc., priority 2001, dated 2007).

One data set relates to hematopoiesis. The settings on record: mouse, cyclophosphamide-induced neutropenia.
The test system of a further data set is cardiac allograft. The following applies: rats; doubled from day 7 to day 14.
The target of the next data set is T1, DP-IV (Homo sapiens, UniProt P27487).
T1 construct: GRF is rapidly degraded in plasma to GRF[3–44]
T1 sequence (P27487 39-766 limits assumed): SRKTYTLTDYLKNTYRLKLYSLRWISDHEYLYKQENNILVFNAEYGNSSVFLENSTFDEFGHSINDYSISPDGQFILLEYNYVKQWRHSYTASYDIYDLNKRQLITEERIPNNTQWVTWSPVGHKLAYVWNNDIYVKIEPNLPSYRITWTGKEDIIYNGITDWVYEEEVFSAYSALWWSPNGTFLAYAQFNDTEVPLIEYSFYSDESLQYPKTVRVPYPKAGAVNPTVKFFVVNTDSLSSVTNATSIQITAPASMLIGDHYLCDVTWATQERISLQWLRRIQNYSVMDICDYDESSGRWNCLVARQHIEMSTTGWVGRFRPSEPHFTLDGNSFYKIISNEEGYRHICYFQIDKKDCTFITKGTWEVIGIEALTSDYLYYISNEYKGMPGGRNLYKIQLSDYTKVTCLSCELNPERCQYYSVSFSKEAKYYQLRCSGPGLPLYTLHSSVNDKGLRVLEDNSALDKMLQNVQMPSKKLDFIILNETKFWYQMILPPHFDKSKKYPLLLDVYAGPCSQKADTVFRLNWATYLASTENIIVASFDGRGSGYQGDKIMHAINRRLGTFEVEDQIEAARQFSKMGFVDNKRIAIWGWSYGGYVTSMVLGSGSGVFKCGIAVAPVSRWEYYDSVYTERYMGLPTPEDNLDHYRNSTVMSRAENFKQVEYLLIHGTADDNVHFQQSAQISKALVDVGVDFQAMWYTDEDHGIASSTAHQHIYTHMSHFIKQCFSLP

`CC(C)[C@H](N)C(=O)N1CCC[C@H]1B(O)O` [Val-Boro-Pro]: the hematopoiesis entry in the data set on hematopoiesis was “stimulates hematopoiesis”.
Take `CC(C)N1CCC(c2ccccc2)(c2ccccc2)CC1` [Prodipine, Pro-Pro-diphenyl-phosphonate]: the cardiac allograft survival in the data set on cardiac allograft was 14 day.
Regarding diprotin A, at DP-IV, the “degradation of GRF in plasma to GRF[3–44]” value is on record as “prevented”.
